From ChEMBL document CHEMBL1201862, “PubChem BioAssay data set” (2004) come the findings set out here.

Test [1] deals with Glucose-6-phosphate 1-dehydrogenase (Homo sapiens, UniProt P11413). Nature of the test: inhibition of Homo sapiens G6PD, dose series – biochemical, fluorescence, selectivity assay for P. falciparum G6PD inhibitor project, dose response (AID 504792). In kind it is functional.
In the next test the target is Estrogen receptor beta (Homo sapiens, UniProt Q92731). Nature of the test: blockers of SRC-3 recruitment to ERβ – biochemical, ELISA, streptavidin-HRP readout, orthogonal assay, confirmation (AID 1060). Background: An ELISA detects its analyte on a solid surface through an enzyme-linked reagent.
The target in test [2] is MAP kinase-activated protein kinase 5 (Homo sapiens, UniProt Q8IW41). In kind it is functional.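 Also: measured as one member of a kinome panel.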
Test [3] concerns the target Tyrosine-protein kinase Blk (Homo sapiens, UniProt P51451). In kind it is functional.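 Also: obtained as one member of a kinome-wide kinase assay panel.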
Test [4] has as its target Tyrosine-protein kinase SYK (Homo sapiens, UniProt P43405). The class given is functional.
For test [5], the target named is RAC-alpha serine/threonine-protein kinase (Homo sapiens, UniProt P31749). In kind it is functional.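 Also: AKT1 affinity measured as one member of a kinome-wide kinase profiling panel.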
Test [6] addresses Glycogen synthase kinase-3 alpha (Homo sapiens, UniProt P49840). The class given is functional.
Test [7] deals with Fibroblast growth factor receptor 1 (Homo sapiens, UniProt P11362). In kind it is functional.
The target of test [8] is Serine/threonine-protein kinase PAK 1 (Homo sapiens, UniProt Q13153). The class given is functional.
Test [9] addresses Hepatocyte growth factor receptor (Homo sapiens, UniProt P08581). The class given is functional.
The target of test [10] is Dual specificity tyrosine-phosphorylation-regulated kinase 1A (Homo sapiens, UniProt Q13627). In kind it is functional.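 Also: measured against DYRK1A as one member of a broad kinome profiling panel.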
Test [11] concerns the target Receptor tyrosine-protein kinase erbB-2 (Homo sapiens, UniProt P04626). The test can be described thus: Navigating the Kinome. Panel member name: ERBB2. The class given is functional.
Test [12] deals with Proto-oncogene tyrosine-protein kinase Src (Homo sapiens, UniProt P12931). The class given is functional.
Test [13] deals with Tyrosine-protein kinase Fyn (Homo sapiens, UniProt P06241). The class given is functional.
The target in test [14] is MAP kinase-activated protein kinase 3 (Homo sapiens, UniProt Q16644). In kind it is functional.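 Also: value comes from a kinome-wide profiling panel in which MAPKAPK3 is one of the panel members.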
Test [15] concerns the target Serine/threonine-protein kinase TAO1 (Homo sapiens, UniProt Q7L7X3). The class given is functional.
Test [16] has as its target Protein kinase C zeta type (Homo sapiens, UniProt Q05513). The class given is functional.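 Also: measured as one member of a broad kinase profiling panel.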
In test [17] the target is Homeodomain-interacting protein kinase 2 (Homo sapiens, UniProt Q9H2X6). In kind it is functional.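 Also: measured within a kinome-wide kinase profiling panel, HIPK2 being one panel member.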
Test [18] addresses cAMP-dependent protein kinase catalytic subunit alpha (Homo sapiens, UniProt P17612). The class given is functional.
In test [19] the target is Mitogen-activated protein kinase kinase kinase kinase 2 (Homo sapiens, UniProt Q12851). The class given is functional.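 Also: measured as one member of a kinome-wide kinase panel, with MAP4K2 as the panel entry.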
The target in test [20] is Vascular endothelial growth factor receptor 2 (Homo sapiens, UniProt P35968). In kind it is functional.
Test [21] concerns the target Serine/threonine-protein kinase BRSK1 (Homo sapiens, UniProt Q8TDC3). The class given is functional.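 Also: measured within a kinome-wide kinase panel, with the target listed as KIAA1811.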
Test [22] concerns the target Non-receptor tyrosine-protein kinase TYK2 (Homo sapiens, UniProt P29597). The class given is functional.
Test [23] concerns the target MAP kinase-interacting serine/threonine-protein kinase 2 (Homo sapiens, UniProt Q9HBH9). The class given is functional.
Test [24] in a line: luciferase reporter signal suppression in cells – H4 neuroglioma cells, luminescence, dose response (AID 1990). The class given is functional, cell-based. On the technique in general: Reporter assays use an easily measured gene product as a stand-in for the process of interest.
In test [25] the target is G-protein coupled receptor 35 (Homo sapiens, UniProt Q9HC97). Nature of the test: inhibition of zaprinast-stimulated GPR35 beta-arrestin translocation – imaging, U2OS, beta-arrestin-GFP, zaprinast agonist, primary screen (AID 2058).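 Also: antagonist potency meaning inhibition of agonist-induced arrestin redistribution.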 In kind it is functional.

Active and inactive are the calls of the source. Where only a bound is given, the exact number is not on record here.

Sequence of Glycogen synthase kinase-3 alpha (P49840 whole entry): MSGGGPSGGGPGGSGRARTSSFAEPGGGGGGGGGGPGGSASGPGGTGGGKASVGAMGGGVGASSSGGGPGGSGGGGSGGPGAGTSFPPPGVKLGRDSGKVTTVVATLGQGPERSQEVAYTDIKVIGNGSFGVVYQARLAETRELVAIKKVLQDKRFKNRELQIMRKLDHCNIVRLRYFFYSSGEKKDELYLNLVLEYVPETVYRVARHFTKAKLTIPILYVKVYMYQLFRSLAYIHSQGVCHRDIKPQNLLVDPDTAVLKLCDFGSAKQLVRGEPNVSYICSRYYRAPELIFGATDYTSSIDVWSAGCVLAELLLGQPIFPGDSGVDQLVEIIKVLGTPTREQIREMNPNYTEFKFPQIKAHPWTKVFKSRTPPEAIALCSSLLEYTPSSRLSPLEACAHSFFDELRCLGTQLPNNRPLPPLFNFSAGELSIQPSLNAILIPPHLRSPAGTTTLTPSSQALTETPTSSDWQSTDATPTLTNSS
Sequence of Tyrosine-protein kinase Blk (P51451 whole entry): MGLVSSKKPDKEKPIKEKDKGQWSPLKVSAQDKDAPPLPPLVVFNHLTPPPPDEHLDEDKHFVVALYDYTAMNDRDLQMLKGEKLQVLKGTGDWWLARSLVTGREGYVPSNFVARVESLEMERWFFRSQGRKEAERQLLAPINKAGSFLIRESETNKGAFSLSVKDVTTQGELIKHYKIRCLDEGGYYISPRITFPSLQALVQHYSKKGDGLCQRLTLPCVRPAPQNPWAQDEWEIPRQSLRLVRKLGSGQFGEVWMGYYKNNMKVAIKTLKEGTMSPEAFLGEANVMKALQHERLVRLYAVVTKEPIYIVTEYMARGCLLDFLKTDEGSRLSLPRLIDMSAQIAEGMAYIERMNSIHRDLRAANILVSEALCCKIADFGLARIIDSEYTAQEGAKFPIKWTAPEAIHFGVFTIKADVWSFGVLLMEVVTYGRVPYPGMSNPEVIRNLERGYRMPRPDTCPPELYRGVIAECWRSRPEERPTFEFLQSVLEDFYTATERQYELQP
Sequence of Fibroblast growth factor receptor 1 (P11362 whole entry): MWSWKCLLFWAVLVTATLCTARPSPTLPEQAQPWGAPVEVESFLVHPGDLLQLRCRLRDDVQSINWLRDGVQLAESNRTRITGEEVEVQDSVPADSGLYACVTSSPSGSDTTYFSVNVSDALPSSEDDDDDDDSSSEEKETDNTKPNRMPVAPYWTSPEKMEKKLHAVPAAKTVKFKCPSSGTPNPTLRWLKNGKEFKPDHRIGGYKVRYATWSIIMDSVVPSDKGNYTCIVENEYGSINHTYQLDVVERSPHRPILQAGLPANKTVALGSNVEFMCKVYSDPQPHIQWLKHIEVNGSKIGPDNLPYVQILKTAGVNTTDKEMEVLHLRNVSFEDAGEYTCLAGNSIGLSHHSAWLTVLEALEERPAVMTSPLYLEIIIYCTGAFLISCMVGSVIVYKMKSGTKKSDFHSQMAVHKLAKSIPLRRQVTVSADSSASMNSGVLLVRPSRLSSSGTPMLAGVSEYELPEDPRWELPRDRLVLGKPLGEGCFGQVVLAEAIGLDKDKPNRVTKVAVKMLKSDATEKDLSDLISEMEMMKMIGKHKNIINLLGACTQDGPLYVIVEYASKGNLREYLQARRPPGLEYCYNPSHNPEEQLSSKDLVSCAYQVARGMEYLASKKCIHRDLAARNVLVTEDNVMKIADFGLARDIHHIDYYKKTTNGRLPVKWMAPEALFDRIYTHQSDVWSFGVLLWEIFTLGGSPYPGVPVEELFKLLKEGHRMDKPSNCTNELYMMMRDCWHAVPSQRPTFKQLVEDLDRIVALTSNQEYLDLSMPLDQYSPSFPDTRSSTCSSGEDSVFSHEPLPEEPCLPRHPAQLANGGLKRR
Sequence of Protein kinase C zeta type (Q05513 whole entry): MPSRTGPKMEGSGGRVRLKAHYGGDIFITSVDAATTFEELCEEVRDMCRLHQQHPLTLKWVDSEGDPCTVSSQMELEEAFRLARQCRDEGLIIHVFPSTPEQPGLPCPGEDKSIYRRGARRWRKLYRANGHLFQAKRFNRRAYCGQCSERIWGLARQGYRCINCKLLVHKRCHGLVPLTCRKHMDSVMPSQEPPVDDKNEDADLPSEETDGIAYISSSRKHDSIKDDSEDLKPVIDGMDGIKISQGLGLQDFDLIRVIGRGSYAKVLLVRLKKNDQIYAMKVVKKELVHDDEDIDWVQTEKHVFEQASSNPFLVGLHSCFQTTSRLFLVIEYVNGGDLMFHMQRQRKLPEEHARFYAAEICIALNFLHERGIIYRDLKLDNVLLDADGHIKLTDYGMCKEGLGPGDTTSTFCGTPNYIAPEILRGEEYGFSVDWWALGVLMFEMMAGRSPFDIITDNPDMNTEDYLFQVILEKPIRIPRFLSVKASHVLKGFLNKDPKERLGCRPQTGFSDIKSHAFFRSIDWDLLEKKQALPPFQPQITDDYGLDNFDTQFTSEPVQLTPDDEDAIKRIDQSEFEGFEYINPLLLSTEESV
Sequence of Serine/threonine-protein kinase TAO1 (Q7L7X3 whole entry): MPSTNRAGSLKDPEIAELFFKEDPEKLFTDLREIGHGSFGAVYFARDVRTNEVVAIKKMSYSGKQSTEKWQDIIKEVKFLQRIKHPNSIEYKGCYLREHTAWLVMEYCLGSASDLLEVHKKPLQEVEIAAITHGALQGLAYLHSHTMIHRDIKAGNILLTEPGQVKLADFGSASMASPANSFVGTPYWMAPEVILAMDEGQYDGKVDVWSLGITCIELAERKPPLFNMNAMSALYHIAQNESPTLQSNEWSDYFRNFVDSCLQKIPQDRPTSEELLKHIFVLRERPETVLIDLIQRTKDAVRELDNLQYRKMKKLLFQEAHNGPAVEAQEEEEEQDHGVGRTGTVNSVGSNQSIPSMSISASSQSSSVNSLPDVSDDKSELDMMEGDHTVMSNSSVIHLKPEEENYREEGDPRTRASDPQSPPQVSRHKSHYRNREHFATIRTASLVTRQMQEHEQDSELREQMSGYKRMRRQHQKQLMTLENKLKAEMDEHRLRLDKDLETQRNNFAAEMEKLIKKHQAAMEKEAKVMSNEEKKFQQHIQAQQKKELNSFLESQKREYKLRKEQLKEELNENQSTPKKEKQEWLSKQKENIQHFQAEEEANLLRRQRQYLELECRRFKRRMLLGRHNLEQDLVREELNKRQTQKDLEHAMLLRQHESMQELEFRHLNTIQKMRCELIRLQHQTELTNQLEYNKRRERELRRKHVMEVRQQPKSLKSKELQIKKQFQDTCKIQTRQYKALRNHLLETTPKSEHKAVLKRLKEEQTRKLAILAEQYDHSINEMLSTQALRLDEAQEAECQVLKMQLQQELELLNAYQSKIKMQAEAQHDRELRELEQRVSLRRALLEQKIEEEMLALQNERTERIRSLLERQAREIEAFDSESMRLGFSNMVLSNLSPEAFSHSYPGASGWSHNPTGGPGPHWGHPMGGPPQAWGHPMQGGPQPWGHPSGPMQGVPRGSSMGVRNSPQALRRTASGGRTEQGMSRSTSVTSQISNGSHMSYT
Sequence of MAP kinase-interacting serine/threonine-protein kinase 2 (Q9HBH9 whole entry): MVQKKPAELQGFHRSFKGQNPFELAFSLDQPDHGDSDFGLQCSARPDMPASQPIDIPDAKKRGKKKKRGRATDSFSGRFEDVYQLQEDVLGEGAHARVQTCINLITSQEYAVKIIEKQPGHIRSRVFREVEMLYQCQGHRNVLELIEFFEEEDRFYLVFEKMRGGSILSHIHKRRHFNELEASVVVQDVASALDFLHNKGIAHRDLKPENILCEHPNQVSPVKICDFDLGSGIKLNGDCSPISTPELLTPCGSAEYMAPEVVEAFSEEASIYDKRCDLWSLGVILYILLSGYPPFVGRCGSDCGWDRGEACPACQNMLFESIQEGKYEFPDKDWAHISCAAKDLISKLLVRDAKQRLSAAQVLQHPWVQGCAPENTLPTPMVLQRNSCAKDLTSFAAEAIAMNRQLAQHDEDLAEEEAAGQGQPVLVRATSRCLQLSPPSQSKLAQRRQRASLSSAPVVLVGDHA
Sequence of Glucose-6-phosphate 1-dehydrogenase (P11413 whole entry): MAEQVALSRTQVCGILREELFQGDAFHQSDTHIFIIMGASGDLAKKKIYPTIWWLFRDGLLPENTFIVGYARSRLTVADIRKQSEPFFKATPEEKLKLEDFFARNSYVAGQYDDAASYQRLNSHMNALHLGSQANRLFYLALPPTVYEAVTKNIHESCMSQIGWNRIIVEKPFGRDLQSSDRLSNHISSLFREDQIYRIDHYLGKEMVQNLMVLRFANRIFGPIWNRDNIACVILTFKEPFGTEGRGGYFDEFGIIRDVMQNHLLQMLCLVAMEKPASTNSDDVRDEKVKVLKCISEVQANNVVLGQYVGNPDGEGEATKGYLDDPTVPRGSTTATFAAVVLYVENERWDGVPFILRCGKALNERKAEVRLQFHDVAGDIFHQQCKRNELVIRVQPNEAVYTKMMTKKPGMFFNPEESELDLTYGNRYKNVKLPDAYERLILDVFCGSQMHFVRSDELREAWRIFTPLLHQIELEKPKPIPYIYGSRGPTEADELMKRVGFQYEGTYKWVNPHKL
Sequence of Proto-oncogene tyrosine-protein kinase Src (P12931 2-536 limits assumed): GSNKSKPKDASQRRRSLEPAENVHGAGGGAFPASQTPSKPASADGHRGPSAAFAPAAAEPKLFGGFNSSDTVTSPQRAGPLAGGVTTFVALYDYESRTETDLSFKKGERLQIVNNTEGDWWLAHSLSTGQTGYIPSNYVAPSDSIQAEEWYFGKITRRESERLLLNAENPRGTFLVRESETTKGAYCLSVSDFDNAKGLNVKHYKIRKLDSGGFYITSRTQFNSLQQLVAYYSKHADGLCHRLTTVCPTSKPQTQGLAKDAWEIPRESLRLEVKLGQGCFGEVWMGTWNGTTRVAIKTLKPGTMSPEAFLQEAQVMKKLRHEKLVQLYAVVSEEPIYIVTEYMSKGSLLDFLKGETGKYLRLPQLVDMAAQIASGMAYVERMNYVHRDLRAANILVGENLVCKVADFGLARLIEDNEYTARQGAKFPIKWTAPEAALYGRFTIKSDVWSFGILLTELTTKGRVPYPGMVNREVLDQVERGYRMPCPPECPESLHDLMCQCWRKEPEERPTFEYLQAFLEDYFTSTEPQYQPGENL

As a reminder, the IC50 is the concentration needed to halve the response being measured. Consider `Oc1ccc(-c2cn3c(n2)SCC3)cc1O`, for which the values for the IC50 (in test [1]; on Estrogen receptor beta) were 41 µM (inactive) and 10.7 µM (not active), respectively.
As a reminder, the Ki is a measure of affinity in units of concentration, obtained from inhibition or displacement. Turning to `O=C1Nc2ccc3ncsc3c2C1=CNc1ccc(S(=O)(=O)Nc2ccccn2)cc1`, the inhibition constant (Ki) in test [2] is 398 nM (active); in test [3], 158 nM (active); in test [4] it was > 1.58 µM (inactive); in test [5] it was > 7.94 µM (inactive); in [6], 3.98 nM (active); in test [7], 25.1 nM (active). In addition, the inhibition constant (Ki) was 2 µM (active) in test [8]; 200 nM (active) in test [9]; 7.94 nM (active) in test [10]; > 1.58 µM (inactive) in [11]; 158 nM (active) in test [12]; 200 nM (active) in test [13]. Further, the Ki in [14] is 7.94 µM (active); in [15], 1.58 µM (active); in [16], > 7.94 µM (inactive); in test [17], 126 nM (active); in [18], 3.98 µM (active); in test [19], 7.94 nM (active). Further, the Ki was 25.1 nM (active) in [20], 12.6 nM (active) in test [21], 251 nM (active) in test [22] and 126 nM (active) in [23].
By EC50 is commonly meant the concentration at which the effect is half-maximal. For the compound `CC(=O)N(C1=C(Cl)C(=O)c2ccccc2C1=O)C1CCCCC1`, the EC50 in test [24] was 9.51 µM (active). Besides, in test [25], the concentration for half-maximal inhibition (IC50) was 5.55 µM (active).
